Measurements as given in ChEMBL document CHEMBL1909046, “DrugMatrix in vitro pharmacology data”.

Columns and labels:
[1] = DRUGMATRIX: ATPase, Na+/K+ enzyme inhibition (substrate: ATP); type: tissue-based, Sus scrofa, Heart; conditions: Not Active = under 50% inhibition at 10 µM
[2] = target: T1, 5-hydroxytryptamine receptor 2C (Homo sapiens, UniProt P28335); experiment: DRUGMATRIX: Serotonin (5-Hydroxytryptamine) 5-HT2C radioligand binding (ligand: [3H] Mesulergine); type: cell membranes, CHO-K1, Membrane; conditions: Not Active = under 50% inhibition at 10 µM; for Ki: read-out: Ki
T1 sequence (P28335 whole entry): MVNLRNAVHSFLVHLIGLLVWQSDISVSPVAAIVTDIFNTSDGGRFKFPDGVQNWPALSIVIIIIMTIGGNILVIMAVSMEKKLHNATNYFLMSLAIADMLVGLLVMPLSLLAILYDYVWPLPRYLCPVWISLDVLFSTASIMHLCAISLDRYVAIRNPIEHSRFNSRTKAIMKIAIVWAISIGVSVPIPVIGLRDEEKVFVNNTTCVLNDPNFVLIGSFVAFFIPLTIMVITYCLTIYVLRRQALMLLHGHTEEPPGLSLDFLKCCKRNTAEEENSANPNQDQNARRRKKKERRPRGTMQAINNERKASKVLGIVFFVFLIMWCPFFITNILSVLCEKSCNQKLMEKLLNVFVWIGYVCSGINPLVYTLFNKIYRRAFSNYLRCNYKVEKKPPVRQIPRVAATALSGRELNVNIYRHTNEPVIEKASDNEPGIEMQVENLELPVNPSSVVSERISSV

[3] = target: Prostaglandin G/H synthase 1 (Homo sapiens, UniProt P23219); experiment: biochemical; type: tissue-based, Platelet; conditions: platelet;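 also: inhibition of COX-1 enzyme activity, with arachidonic acid supplied as substrate; in other assays of this panel Not Active means under 50% inhibition at 10 µM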
Prostaglandin G/H synthase 1, sequence (P23219 whole entry): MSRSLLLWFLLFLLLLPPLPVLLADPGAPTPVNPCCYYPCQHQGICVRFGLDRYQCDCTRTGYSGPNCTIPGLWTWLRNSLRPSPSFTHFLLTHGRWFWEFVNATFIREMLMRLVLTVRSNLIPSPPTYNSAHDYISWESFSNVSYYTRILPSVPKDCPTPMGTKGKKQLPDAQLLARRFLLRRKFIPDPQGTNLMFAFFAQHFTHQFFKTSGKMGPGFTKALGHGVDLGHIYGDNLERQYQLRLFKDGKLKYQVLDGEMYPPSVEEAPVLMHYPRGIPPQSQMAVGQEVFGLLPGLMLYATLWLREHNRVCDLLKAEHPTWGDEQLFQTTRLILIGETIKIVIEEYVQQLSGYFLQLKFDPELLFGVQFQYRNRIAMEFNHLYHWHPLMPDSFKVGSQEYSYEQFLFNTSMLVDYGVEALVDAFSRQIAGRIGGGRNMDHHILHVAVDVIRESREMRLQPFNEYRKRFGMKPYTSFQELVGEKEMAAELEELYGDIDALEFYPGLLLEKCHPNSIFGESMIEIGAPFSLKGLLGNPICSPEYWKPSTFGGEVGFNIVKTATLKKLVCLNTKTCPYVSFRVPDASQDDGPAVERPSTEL

[4] = target: T2, Alpha-1A adrenergic receptor (Rattus norvegicus, UniProt P43140); experiment: DRUGMATRIX: Alpha-1A adrenergic receptor radioligand binding (ligand: prazosin); type: cell membranes, Wistar, Submaxillary gland, Membrane; conditions: Not Active = under 50% inhibition at 10 µM; for Ki: read-out: Ki
T2 sequence (P43140 whole entry): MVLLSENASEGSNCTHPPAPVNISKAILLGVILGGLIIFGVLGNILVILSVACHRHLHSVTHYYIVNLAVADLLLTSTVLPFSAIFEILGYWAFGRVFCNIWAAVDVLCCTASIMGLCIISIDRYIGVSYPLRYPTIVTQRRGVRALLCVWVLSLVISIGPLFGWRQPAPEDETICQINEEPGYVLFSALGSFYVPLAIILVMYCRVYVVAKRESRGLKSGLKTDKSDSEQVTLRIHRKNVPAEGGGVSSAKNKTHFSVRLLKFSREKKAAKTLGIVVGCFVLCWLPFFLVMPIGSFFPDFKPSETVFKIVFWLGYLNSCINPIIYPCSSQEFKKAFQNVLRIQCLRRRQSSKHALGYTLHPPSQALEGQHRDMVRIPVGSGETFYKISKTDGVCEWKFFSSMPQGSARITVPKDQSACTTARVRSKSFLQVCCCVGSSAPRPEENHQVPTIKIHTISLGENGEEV

[5] = DRUGMATRIX: Glutamate, AMPA radioligand binding (ligand: [3H] AMPA); type: cell membranes, Rattus norvegicus, Wistar, Cerebral cortex, Membrane; conditions: Not Active = under 50% inhibition at 10 µM
[6] = target: Epidermal growth factor receptor (Homo sapiens, UniProt P00533); experiment: DRUGMATRIX: Protein Tyrosine Kinase, EGF Receptor enzyme inhibition (substrate: Poly(Glu:Tyr)); type: cell-based, Insect cells; conditions: Not Active = under 50% inhibition at 10 µM
Epidermal growth factor receptor, sequence (P00533 whole entry): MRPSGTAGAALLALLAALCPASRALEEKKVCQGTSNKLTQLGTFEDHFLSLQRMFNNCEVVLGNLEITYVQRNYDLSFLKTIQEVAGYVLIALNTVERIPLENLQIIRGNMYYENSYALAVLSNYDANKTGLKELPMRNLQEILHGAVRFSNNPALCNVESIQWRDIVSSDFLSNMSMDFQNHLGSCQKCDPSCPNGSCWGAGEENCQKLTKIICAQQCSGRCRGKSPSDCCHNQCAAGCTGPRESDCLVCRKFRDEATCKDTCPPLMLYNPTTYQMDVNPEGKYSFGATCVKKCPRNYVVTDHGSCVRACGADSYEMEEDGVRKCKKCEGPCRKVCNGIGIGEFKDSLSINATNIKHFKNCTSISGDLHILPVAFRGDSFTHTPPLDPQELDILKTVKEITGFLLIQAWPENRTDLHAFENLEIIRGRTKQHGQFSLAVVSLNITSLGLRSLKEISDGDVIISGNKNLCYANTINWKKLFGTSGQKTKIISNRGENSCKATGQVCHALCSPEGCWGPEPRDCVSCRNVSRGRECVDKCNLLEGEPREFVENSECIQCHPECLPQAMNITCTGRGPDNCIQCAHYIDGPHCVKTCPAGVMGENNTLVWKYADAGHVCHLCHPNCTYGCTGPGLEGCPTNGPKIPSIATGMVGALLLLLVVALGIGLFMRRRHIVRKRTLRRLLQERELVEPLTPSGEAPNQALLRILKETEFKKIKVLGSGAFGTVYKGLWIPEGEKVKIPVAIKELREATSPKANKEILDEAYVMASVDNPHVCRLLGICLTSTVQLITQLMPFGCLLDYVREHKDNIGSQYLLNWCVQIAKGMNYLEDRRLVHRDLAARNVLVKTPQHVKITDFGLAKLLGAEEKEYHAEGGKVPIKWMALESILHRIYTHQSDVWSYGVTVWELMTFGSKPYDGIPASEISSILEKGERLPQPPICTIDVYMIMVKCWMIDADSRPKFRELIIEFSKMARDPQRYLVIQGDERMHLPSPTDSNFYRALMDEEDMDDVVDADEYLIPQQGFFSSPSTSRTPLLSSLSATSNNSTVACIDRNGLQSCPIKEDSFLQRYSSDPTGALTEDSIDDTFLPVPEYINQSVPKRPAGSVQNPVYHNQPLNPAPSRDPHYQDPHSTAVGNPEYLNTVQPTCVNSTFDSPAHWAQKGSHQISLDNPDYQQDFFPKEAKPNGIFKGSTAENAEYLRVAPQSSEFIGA

Structure (SMILES) | IC50 [1] | Ki [1] | IC50 ([2]; read-out: IC50) [nM] | Ki [2] [nM] | IC50 [3] | IC50 [4] | IC50 [5] | Ki [5] | IC50 ([2]; cho-k1) | IC50 ([6]; insect cells) | IC50 ([4]; read-out: IC50) [nM] | Ki [4] [nM] | IC50 ([6]; read-out: IC50) [nM]
COc1cc(N)nc2[nH]c(-c3ccc(F)cc3)c(-c3ccncc3)c12 | Not Active | Not Active | 1240 | 648 | Not Active | Not Active | Not Active | Not Active |  |  |  |  | 
CNS(=O)(=O)Cc1ccc2[nH]cc(CCN(C)C)c2c1 | Not Active | Not Active |  |  | Not Active | Not Active | Not Active | Not Active | Not Active | Not Active |  |  | 
CCCc1nn(C)c2c(=O)[nH]c(-c3cc(S(=O)(=O)N4CCN(C)CC4)ccc3OCC)nc12 | Not Active | Not Active |  |  | Not Active | Not Active | Not Active | Not Active | Not Active | Not Active |  |  | 
COc1ccc(/C=C/C(=O)Nc2ccccc2C(=O)O)cc1OC | Not Active | Not Active |  |  | Not Active | Not Active | Not Active | Not Active | Not Active | Not Active |  |  | 
CCOC(N)=O | Not Active | Not Active |  |  | Not Active | Not Active | Not Active | Not Active | Not Active | Not Active |  |  | 
CC(=O)Nc1nnc(S(N)(=O)=O)s1 [ACETAZOLAMIDE] |  |  |  |  | Not Active | Not Active |  |  | Not Active | Not Active |  |  | 
O=c1[nH]c2ccccc2n1CCCN1CCC(n2c(=O)[nH]c3cc(Cl)ccc32)CC1 [DOMPERIDONE] |  |  |  |  | Not Active |  |  |  |  | Not Active | 285 | 116 | 
CC1=C(CC(=O)O)c2cc(F)ccc2/C1=C\c1ccc(S(C)(=O)=O)cc1 [EXISULIND] | Not Active | Not Active |  |  | Not Active | Not Active | Not Active | Not Active | Not Active | Not Active |  |  | 
CC(C)OC(=O)C(C)(C)Oc1ccc(C(=O)c2ccc(Cl)cc2)cc1 [FENOFIBRATE] |  |  |  |  | Not Active | Not Active |  |  |  | Not Active |  |  | 
OCCN1CCN(CCCN2c3ccccc3Sc3ccc(C(F)(F)F)cc32)CC1 [FLUPHENAZINE] |  |  |  |  | Not Active |  |  |  |  |  | 24 | 9.58 | 40100
CN1C2CCCC1CC(NC(=O)c1nn(C)c3ccccc13)C2 (stereo not drawn) [GRANISETRON] |  |  |  |  | Not Active | Not Active |  |  | Not Active | Not Active |  |  | 
Nc1nc2c(c(=O)[nH]1)N(C=O)C(CNc1ccc(C(=O)N[C@@H](CCC(=O)O)C(=O)O)cc1)CN2 (stereo partly drawn) [LEUCOVORIN] | Not Active | Not Active |  |  | Not Active | Not Active | Not Active | Not Active | Not Active | Not Active |  |  | 
C[C@@H](O)[C@H]1C(=O)N2C(C(=O)O)=C(S[C@@H]3CN[C@H](C(=O)N(C)C)C3)[C@H](C)[C@H]12 [MEROPENEM] | Not Active | Not Active |  |  | Not Active | Not Active | Not Active | Not Active | Not Active | Not Active |  |  | 
CC[C@@H](CO)NC(=O)[C@@H]1C=C2c3cccc4c3c(cn4C)C[C@H]2N(C)C1 [METHYSERGIDE] |  |  | 2.09 | 1.09 | Not Active | Not Active |  |  |  | Not Active |  |  | 
CCN(CC)CC#CCOC(=O)C(O)(c1ccccc1)C1CCCCC1 (stereo not drawn) [OXYBUTYNIN] |  |  |  |  | Not Active | Not Active |  |  | Not Active | Not Active |  |  | 
O=P(O)(O)C(O)(Cc1cccnc1)P(=O)(O)O [RISEDRONIC ACID] | Not Active | Not Active |  |  | Not Active | Not Active | Not Active | Not Active | Not Active | Not Active |  |  | 
CN(CCOc1ccc(CC2SC(=O)NC2=O)cc1)c1ccccn1 (stereo not drawn) [ROSIGLITAZONE] | Not Active | Not Active |  |  | Not Active | Not Active | Not Active | Not Active | Not Active | Not Active |  |  | 
C=C(C)[C@H]1Cc2c(ccc3c2O[C@@H]2COc4cc(OC)c(OC)cc4[C@@H]2C3=O)O1 [ROTENONE] | Not Active | Not Active |  |  | Not Active | Not Active | Not Active | Not Active | Not Active | Not Active |  |  | 
C#CCN(C)[C@H](C)Cc1ccccc1 [SELEGILINE] | Not Active | Not Active |  |  | Not Active | Not Active | Not Active | Not Active | Not Active | Not Active |  |  | 
CO[C@H]1C[C@@H]2CC[C@@H](C)[C@@](O)(O2)C(=O)C(=O)N2CCCC[C@H]2C(=O)O[C@H]([C@H](C)C[C@@H]2CC[C@@H](O)[C@H](OC)C2)CC(=O)[C@H](C)/C=C(\C)[C@@H](O)[C@@H](OC)C(=O)[C@H](C)C[C@H](C)/C=C/C=C/C=C/1C [SIROLIMUS] | Not Active | Not Active |  |  | Not Active | Not Active | Not Active | Not Active | Not Active | Not Active |  |  | 
CN[C@@H]1[C@H](O)[C@H](NC)[C@H]2O[C@@]3(O)C(=O)C[C@@H](C)O[C@H]3O[C@@H]2[C@H]1O [SPECTINOMYCIN] | Not Active | Not Active |  |  | Not Active | Not Active | Not Active | Not Active | Not Active | Not Active |  |  | 
Nc1ccc(S(=O)(=O)Nc2ncccn2)cc1 [SULFADIAZINE] | Not Active | Not Active |  |  | Not Active | Not Active | Not Active | Not Active | Not Active | Not Active |  |  | 
COc1ncnc(NS(=O)(=O)c2ccc(N)cc2)c1OC [SULFADOXINE] | Not Active | Not Active |  |  | Not Active | Not Active | Not Active | Not Active | Not Active | Not Active |  |  | 
Nc1ccc(S(=O)(=O)Nc2nccs2)cc1 [SULFATHIAZOLE] | Not Active | Not Active |  |  | Not Active | Not Active | Not Active | Not Active | Not Active | Not Active |  |  | 
C[C@]12CC[C@H]3[C@@H](CCC4=CC(=O)CC[C@@]43C)[C@@H]1CC[C@@H]2O [TESTOSTERONE] | Not Active | Not Active |  |  | Not Active | Not Active | Not Active | Not Active | Not Active | Not Active |  |  | 
CC(C)(C)NC[C@H](O)COc1nsnc1N1CCOCC1 [TIMOLOL] | Not Active | Not Active |  |  | Not Active | Not Active | Not Active | Not Active | Not Active | Not Active |  |  | 
CCS(=O)(=O)CCn1c([N+](=O)[O-])cnc1C [TINIDAZOLE] | Not Active | Not Active |  |  | Not Active | Not Active | Not Active | Not Active | Not Active | Not Active |  |  | 
C[C@@H]1C[C@H]2[C@@H]3CCC4=CC(=O)C=C[C@]4(C)C3=CC[C@]2(C)[C@H]1C(=O)CN1CCN(c2cc(N3CCCC3)nc(N3CCCC3)n2)CC1 [TIRILAZAD] | Not Active | Not Active | 718 | 376 | Not Active | Not Active | Not Active | Not Active |  |  |  |  | 20400
O=c1n(CCCN2CCN(c3cccc(Cl)c3)CC2)nc2ccccn12 [TRAZODONE] |  |  |  |  | Not Active |  |  |  |  | Not Active | 117 | 47 | 
Cc1cn([C@H]2C[C@H](N=[N+]=[N-])[C@@H](CO)O2)c(=O)[nH]c1=O [ZIDOVUDINE] | Not Active | Not Active |  |  | Not Active | Not Active | Not Active | Not Active | Not Active |  |  |  | 
